Patent publication US9834535B2, “Sulfamate derivative compounds for use in treating or alleviating pain” (Bio-Pharm Solutions Co., Ltd., priority 2013, dated 2017)

Columns and labels:
[1] = tested on: CFA-induced pain model; assay: Antiallodynic activity on Complete Freund's Adjuvant (CFA)-induced inflammatory pain model (von Frey); assay type: in vivo, Sprague-Dawley rats; conditions: Rattus norvegicus, ip, 0.5 h, read-out: CFA model: effect (%) at the concentration administered
Protocol: Male, Sprague-Dawley rats (200-220 g, Nara Bio, Korea) were habituated for 1 week before surgery and allowed free access to food and water throughout the experimentation. Room temperature and humidity were maintained at 24±2° C. and 50±10%, respectively.
CFA-induced inflammatory pain was induced by the procedure of Nagakura et al. (2003) and Gregory P. et al. (2010) with minor modifications. CFA (sigma, USA) was injected in the left plantar with a 100 ul volume under gaseous anesthesia with isoflurane a 4:4 flow ratio of NO2 Sham controls were injected with 100 ul of saline and vehicle controls were identical to CFA infusion model, except for administration of vehicles.
(§1) Tactile sensitivity (Mechanical allodynia) was evaluated using von Frey monofilaments before and after treatment, and animals were used withdrawal threshold value was less than 4 g. One week after surgery, CFA-infused animals (n=4˜6), sham-operated animals (n=12), and vehicle-operated animals (n=17) were tested for tactile sensitivity with von Frey monofilaments 3 trials in each animal. All Animals were placed in a stainless steel mashed chamber and habituated for 30 min in the test box. The tactile sensitivity for ipsilateral hind paw was measured using the up-and-down method (Dixon, 1980) with seven von Frey monofilaments (0.4, 1, 2, 4, 6, 8, and 15 g) to 3 trials. Tactile sensitivity test was followed by Dixon's method (Dixon, 1980). The 50% paw withdrawal threshold for each paw was calculated using the following formula: [Xth] log=[vFr] log+ky where [vFr] is the force of the last von Frey used, k=0.2249 which is the average interval (in log units) between the von Frey monofilaments, and y is a value that depends upon the pattern of withdrawal responses (Dixon, 1980).
[…] The test was performed peak time of efficacy (0.5 hr) after compound administration.
The relative values compared to the sham (% control) were calculated and shown in Table 4, which show an antiallodynic effect of the compound of Examples on CFA-induced pain model in rats.

[2] = tested on: Post operation-induced pain model; assay: Antiallodynic activity on post operative-induced pain model (von Frey); assay type: in vivo, Sprague-Dawley rats; conditions: 2 mg/kg, 0.5 h, rat, intraperitoneal
Protocol: Male Sprague-Dawley rats′(Orient Bio, Korea), 300˜320 g, total of 201 rats were used (details in Table 7). Rats were habituated at least 3 clays before surgery and free access to food and water (room temperature and humidity were maintained at 24±2° C. and 50±10%, respectively). The process of performing the post-operation model's surgery was adapted from Brennan et al (1996). At first, rats with allodynia (threshold valueless than 8 g) were excluded in Pre-von Frey Test. During the post-operation surgery, rats were anesthetized under gaseous anesthesia with 2% isoflurane. Rats were laid face down on a plate fixed at 37° C. to prevent against hypothermia. The ipsilateral plantar aspect (left side) of the hind paw was prepared in a sterile manner with a 10% povidone-iodine solution. […]
For efficacy measure, the threshold value of group C was assigned 100% efficacy, and the percentage of the threshold values of group A compared to group C (for each different dose level) were calculated as the efficacies. Base on these efficacy values, ED50 was calculated using log fitting. […]
For pain threshold test, all animals were placed in a stainless steel meshed chamber and habituated for 30 min in the test box. The tactile sensitivity of the ipsilateral hind paw was measured using the up-and-down method (Dixon, 1980) with seven von Frey monofilaments (0.4, 1, 2, 4, 6, 8, and 15 g) using 3 trials. […]

[3] = tested on: hot plate withdrawal latency; assay: Hot-plate test; assay type: in vivo, ICR mice; conditions: mouse, oral
Protocol: To examine the pain relief effect of the sulfamate derivative compounds, a hot-plate test was conducted in general pain animal model referring to Current Protocols in Neuroscience; Behavioral Neuroscience Unit 8.9.
ICR mice (male, 30-35 g: Orient Bio, Korea) were habituated before test in test room for 1 hour. Animals were fasted 2 hr before administration of compounds. […] All compounds were dissolved in a vehicle of 30% (v/v) PEG 400 or 20% (v/v) Tween 80. The control group was treated the vehicle without compounds.
[…] (Hu, X. et al, 2008), and then, measured as the withdrawal latency (cut-off time: 30 sec) time until the point when each mouse was taking off a paw from the plate, shaking, licking a paw or hind leg, or jumping from the plate.

[4] = tested on: SNL model; assay: Antiallodynic activity on Chung model (SNL, spinal nerve ligation; von Frey); assay type: in vivo, Sprague-Dawley rats; conditions: rat, oral, 0.5 h; for ED50: von Frey
Protocol: Male. Sprague-Dawley rats (200-220 g, Orient Bio, Korea) were habituated for 1 week before the experiment and allowed free access to food and water throughout the experimentation. Room temperature and humidity were maintained at 24±2° C. and 50±10%, respectively. Neuropathic surgery (SNL, Spinal nerve ligation) model was clone as described in Kim and Chung (1992). Briefly, animal under gaseous anesthesia with isoflurane a 4:4 flow ratio of NO2. The left lumber spinal nerve L5 and L6 were isolated and tightly ligated with 4-0 silk thread. The wound was treated with a gentamicin antibiotics solution (4 mg/kg, 4 ul/g, bw), and the wound muscle was closed with cat cut chrom 4/0 thread and skin was closed dafilon 4/0 tread. Sham controls were prepared in the same manner as the spinal nerves were exposed, but no ligated L5 and L6 nerves. But, vehicle controls were identical to SNL model, except for administration of vehicles.
as §1, with “treatment” for “treatment,”, “SNL-operated” for “CFA-infused”, “(n=4˜10)” for “(n=12),”, “(n=4˜13)” for “(n=17)”
All animals were fasted 18 h before the administration of the compounds. The antiallodynic effect of the compounds were evaluated at the various dose (n=5˜6), orally administrated in a volume of 5 ul/g, bw in a vehicle of 30% (v/v) PEG 400 or 20% (v/v) Tween 80 or Saline. […]
The relative values compared to the sham group (% control) were calculated and shown in Table 5, which show an antiallodynic effect of the test compounds on SNL model in rats.

[5] = tested on: tail-flick withdrawal latency; assay: Tail-flick test; assay type: in vivo, ICR mice; conditions: mouse, oral
Protocol: To examine the pain relief effect of the sulfamate compounds, a tail-flick test was conducted in general pain animal model referring to Current Protocols in Neuroscience; Behavioral Neuroscience Unit 8.9.
ICR mice (male, 25-30 g; Orient Bio, Korea) were habituated before test in test room for 1 hour. Animals were fasted 2 hr before administration of compounds. Each of Compound was orally administered at the close of 150 mg/kg, 10 ul/g, bw (n=7˜10/group). All compounds were dissolved in a vehicle of 30% (v/v) PEG 400 or 20% (v/v) Tween 80. The control group was treated the vehicle without compounds.
After the administration of compounds, the mice tail were put on a tail-flick analgesia meter. To avoid tissue damage, maximal exposure time to pain stimuli was restricted to 15 s. The withdrawal latency was measured as the time to the point when each mouse response to the stimulus. The relative values compared to the control (% control) were calculated.
The relative values compared to the sham were calculated and shown in Table 12, which show effect of the compound of examples on tail-flick test in […].

With `CC1(C)O[C@@H](COS([NH-])(=O)=O)[C@H](c2ccccc2Cl)O1.[Na+]` [Example 177, sodium ((((4S,5S)-5-(2-chlorophenyl)-2,2-dimethyl-1,3-dioxolan-4-yl)methoxy)sulfonyl)amide] the response vs control in vivo at 15 mg/kg [1] was 67.2% and the “Post Operation: effect (%) at the concentration administered” value [2] was “^#2 (64.4%, 0.5 h)”.
For `CC1(C)O[C@@H](COS(N)(=O)=O)[C@H](c2ccccc2F)O1` [Example 16, ((4S,5S)-5-(2-fluorophenyl)-2,2-dimethyl-1,3-dioxolan-4-yl)methyl sulfamate], the ED50 ([3]; 1 h) was 116 mg/kg, the ED50 [4] was 24.6 mg/kg and the tail-flick test: dose [5] was greater than 200 mg/kg.
`CC1(C)O[C@@H](COS(N)(=O)=O)[C@H](c2ccccc2I)O1` [Example 28, ((4S,5S)-5-(2-iodophenyl)-2,2-dimethyl-1,3-dioxolan-4-yl)methyl sulfamate] was tested, and the response vs control in vivo at 40 mg/kg ([1]; 40 mg/kg, rat, intraperitoneal) was 17.8%, the “Hot plate test: effect (%) at the concentration administered” value ([3]; 100 mg/kg) was “^#100 (126.4%)” and the response vs control in vivo at 90 mg/kg ([4]; 90 mg/kg, read-out: SNL model: effect (%) at the concentration administered) was 72.6%. It also gave a tail-flick test: dose [5] greater than 200 mg/kg.
In the case of `CC1(C)O[C@H](c2ccccc2F)[C@@H](COS(N)(=O)=O)O1` [Example 15, ((4R,5R)-5-(2-fluorophenyl)-2,2-dimethyl-1,3-dioxolan-4-yl)methyl sulfamate], the ED50 ([3]; 0.5 h) is reported as 113 mg/kg, the ED50 [4] is reported as 69.8 mg/kg and the tail-flick test: dose [5] is reported as greater than 200 mg/kg.
